Tests used:
Assay in all cases: binding to VI16742 beads (HeLa lysate, SILAC MS)
[1] = biological target: T1, TAO1 (TAOK1, IPI00002232) (Homo sapiens, UniProt Q7L7X3)
T1 construct: endogenous in cells; host or cells: HeLa S3
T1 sequence (Q7L7X3 1-1001): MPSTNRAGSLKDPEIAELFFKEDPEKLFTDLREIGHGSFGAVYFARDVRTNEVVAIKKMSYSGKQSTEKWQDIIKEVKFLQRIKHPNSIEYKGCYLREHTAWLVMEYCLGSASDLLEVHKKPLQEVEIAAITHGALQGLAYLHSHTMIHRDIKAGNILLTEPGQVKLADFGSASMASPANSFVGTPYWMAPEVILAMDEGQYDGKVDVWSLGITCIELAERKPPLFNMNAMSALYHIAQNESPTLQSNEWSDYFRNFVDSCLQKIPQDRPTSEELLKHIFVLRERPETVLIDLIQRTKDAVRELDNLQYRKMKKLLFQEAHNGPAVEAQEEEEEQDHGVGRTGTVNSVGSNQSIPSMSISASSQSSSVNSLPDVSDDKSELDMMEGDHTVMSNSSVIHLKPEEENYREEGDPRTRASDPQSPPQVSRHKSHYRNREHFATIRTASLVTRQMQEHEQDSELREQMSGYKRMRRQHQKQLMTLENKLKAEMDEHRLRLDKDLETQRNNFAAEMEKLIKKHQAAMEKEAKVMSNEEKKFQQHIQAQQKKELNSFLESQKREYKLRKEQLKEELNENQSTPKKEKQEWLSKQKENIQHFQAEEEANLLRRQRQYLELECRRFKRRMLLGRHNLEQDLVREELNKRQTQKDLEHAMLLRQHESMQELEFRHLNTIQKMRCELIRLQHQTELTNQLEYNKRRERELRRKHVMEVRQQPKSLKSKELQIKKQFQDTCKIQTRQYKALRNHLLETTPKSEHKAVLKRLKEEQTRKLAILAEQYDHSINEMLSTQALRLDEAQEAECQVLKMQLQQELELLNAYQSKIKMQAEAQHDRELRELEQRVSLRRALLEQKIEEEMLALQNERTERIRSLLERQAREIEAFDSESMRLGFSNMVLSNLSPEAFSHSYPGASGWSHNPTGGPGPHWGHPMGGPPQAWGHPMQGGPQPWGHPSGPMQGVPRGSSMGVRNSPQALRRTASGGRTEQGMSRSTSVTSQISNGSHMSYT
Source text: (§1) In an alternative implementation of the chemical proteomic approach according to the invention, the broadly-selective pyrido[2,3-d]pyrimidine-based kinase inhibitor VI16742 has been used for affinity capture (FIG. 10a). […] As shown by gene ontology analysis, the corresponding molecular functions were highly over-represented in proteins specifically retained by the inhibitor resin (FIG. 10b).

[2] = biological target: T2, DCI (IPI00300567) (Homo sapiens, UniProt P42126)
T2 construct: endogenous in cells; host or cells: HeLa S3
T2 sequence (P42126 42-302): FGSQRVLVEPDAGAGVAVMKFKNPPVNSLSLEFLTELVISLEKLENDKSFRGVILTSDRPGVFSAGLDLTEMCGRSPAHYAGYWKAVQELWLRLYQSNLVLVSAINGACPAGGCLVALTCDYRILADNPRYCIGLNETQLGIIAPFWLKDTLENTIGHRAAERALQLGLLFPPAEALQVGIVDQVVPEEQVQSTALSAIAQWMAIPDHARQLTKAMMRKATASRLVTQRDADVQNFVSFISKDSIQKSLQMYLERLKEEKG
Source text: as §1

[3] = biological target: T3, HGK/ZC1 (MAP4K4, IPI00604647) (Homo sapiens, UniProt O95819)
T3 construct: endogenous in cells; host or cells: HeLa S3
Source text: as §1

[4] = biological target: T4, TNIK/ZC2 (TNIK, IPI00514275) (Homo sapiens, UniProt Q9UKE5)
T4 construct: endogenous in cells; host or cells: HeLa S3
Source text: as §1

[5] = biological target: T5, OSR1 (OXSR1, IPI00010080) (Homo sapiens, UniProt O95747)
T5 construct: endogenous in cells; host or cells: HeLa S3
Source text: as §1

[6] = biological target: T6, APRT (IPI00218693) (Homo sapiens, UniProt P07741)
T6 construct: endogenous in cells; host or cells: HeLa S3
T6 sequence (P07741 1-180): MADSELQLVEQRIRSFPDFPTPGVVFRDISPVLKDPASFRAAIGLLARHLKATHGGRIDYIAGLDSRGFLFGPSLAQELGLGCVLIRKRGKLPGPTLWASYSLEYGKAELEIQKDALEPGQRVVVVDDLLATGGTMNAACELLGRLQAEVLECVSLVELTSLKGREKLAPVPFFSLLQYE
Source text: as §1

[7] = biological target: T7, MAP2K4 (IPI00789335) (Homo sapiens, UniProt P45985)
T7 construct: endogenous in cells; host or cells: HeLa S3
T7 sequence (P45985 1-399): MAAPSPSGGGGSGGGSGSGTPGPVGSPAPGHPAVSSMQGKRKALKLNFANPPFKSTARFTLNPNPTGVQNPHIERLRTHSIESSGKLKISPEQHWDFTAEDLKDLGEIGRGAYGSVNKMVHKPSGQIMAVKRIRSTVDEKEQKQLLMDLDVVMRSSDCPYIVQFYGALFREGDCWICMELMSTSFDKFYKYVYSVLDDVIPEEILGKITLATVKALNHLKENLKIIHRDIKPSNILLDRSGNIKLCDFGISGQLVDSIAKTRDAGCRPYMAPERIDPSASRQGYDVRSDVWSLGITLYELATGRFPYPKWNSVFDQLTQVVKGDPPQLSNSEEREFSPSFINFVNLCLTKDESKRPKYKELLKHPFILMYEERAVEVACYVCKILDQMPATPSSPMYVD
Source text: as §1

[8] = control beads vs first incubation

T4 sequence (Q9UKE5 whole entry): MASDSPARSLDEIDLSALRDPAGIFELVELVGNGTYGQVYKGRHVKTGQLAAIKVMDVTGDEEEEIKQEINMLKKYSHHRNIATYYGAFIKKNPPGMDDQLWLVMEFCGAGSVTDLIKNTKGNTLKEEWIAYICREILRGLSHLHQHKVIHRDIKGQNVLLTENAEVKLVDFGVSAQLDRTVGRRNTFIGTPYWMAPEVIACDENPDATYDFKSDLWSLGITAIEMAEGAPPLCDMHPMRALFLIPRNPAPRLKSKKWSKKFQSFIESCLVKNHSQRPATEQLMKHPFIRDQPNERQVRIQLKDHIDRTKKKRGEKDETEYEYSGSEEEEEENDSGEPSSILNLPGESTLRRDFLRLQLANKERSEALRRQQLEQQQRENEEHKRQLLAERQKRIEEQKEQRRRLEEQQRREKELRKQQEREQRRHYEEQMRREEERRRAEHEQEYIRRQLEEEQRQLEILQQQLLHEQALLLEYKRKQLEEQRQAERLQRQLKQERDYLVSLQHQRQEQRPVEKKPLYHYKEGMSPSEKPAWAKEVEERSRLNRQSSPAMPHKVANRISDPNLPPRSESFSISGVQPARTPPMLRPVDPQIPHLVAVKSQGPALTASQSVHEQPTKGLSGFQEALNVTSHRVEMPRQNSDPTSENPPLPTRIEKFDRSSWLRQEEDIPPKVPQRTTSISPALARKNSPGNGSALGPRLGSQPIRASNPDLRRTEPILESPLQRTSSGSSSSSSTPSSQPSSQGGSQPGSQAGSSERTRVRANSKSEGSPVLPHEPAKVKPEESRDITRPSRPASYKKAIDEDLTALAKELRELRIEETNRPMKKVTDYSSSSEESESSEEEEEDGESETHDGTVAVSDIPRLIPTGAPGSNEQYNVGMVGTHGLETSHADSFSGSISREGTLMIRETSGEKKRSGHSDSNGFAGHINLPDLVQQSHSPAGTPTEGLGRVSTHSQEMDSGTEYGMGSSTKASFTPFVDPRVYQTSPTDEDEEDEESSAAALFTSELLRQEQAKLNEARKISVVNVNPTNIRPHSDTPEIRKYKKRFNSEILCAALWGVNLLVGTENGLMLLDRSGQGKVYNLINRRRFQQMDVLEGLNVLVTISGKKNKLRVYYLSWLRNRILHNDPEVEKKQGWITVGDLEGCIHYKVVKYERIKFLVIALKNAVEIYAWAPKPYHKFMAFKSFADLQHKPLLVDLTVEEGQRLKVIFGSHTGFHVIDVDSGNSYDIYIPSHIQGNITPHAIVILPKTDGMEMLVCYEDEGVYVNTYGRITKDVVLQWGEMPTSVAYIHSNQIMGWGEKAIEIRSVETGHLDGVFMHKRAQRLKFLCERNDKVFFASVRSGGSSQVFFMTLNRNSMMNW
T3 sequence (O95819 whole entry): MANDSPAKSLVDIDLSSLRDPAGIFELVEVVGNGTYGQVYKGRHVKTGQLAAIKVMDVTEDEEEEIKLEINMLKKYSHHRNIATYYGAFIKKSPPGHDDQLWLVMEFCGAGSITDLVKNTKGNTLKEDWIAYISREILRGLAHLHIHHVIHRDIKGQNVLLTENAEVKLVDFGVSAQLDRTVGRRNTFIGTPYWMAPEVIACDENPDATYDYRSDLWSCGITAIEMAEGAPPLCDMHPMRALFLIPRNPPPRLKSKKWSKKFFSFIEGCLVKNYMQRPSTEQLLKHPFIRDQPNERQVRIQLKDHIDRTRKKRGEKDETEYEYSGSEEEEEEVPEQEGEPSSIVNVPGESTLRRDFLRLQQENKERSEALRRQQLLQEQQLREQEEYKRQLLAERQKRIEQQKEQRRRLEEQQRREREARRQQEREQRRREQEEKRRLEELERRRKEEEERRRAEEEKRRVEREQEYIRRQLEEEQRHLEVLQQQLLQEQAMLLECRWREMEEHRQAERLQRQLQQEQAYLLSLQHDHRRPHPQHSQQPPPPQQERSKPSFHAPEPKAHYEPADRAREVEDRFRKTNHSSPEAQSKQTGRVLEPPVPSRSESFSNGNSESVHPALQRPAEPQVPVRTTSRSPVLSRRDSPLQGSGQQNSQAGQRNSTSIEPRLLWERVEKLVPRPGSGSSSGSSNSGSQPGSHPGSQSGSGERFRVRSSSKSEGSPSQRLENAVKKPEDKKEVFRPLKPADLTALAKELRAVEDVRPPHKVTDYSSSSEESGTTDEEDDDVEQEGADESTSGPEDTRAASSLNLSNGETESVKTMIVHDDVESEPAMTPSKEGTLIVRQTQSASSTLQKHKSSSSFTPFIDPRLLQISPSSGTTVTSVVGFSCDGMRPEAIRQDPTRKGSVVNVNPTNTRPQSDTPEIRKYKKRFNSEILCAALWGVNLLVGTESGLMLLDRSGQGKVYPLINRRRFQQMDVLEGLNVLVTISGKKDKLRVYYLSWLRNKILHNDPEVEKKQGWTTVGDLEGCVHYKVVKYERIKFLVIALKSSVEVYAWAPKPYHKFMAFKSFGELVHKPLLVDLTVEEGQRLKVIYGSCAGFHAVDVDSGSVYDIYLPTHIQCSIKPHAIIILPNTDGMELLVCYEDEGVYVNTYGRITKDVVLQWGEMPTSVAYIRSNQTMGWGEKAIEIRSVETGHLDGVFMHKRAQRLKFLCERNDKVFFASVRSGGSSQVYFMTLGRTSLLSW
T5 sequence (O95747 whole entry): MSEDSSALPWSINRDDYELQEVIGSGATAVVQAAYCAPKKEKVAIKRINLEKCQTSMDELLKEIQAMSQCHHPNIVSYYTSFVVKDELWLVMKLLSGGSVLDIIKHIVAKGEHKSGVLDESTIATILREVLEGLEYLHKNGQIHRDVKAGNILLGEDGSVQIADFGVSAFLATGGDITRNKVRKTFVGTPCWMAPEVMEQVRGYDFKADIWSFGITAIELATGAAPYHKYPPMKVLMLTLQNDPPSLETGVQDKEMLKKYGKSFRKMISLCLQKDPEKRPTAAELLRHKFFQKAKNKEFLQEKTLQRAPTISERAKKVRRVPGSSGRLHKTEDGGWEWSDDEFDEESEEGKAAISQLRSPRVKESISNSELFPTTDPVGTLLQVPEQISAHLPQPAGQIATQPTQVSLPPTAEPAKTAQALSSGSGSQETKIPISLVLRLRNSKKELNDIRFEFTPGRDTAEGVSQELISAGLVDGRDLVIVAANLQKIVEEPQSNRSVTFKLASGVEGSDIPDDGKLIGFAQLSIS

CC(C)n1c(=O)ccc2cnc(Nc3ccc(OCCN)cc3)nc21 [V16742]
r (3 MG/1 MG LYSATE) ([1]; 3 mg vs 1 mg lysate): 2.64 | r (5 h/2.5 h INC. TIME) ([1]; 5 h vs 2.5 h incubation time): 1.02 | rAVERAGE (CTRL/1 INC) [1, 8]: 0.06 | Ki ([1]; immobilized VI16742): 162 µM | rAVERAGE (2 INC/1 INC) ([1]; second vs first incubation): 0.76 | r (3 MG/1 MG LYSATE) ([2]; 3 mg vs 1 mg lysate): 3.25 | r (5 h/2.5 h INC. TIME) ([2]; 5 h vs 2.5 h incubation time): 1.68 | rAVERAGE (CTRL/1 INC) [2, 8]: 0.04 | Ki ([2]; immobilized VI16742): 236 µM | rAVERAGE (2 INC/1 INC) ([2]; second vs first incubation): 0.82 | rAVERAGE (CTRL/1 INC) [3, 8]: 0.05 | Ki ([3]; immobilized VI16742): 75.7 µM | rAVERAGE (2 INC/1 INC) ([3]; second vs first incubation): 0.59 | r (5 h/2.5 h INC. TIME) ([4]; 5 h vs 2.5 h incubation time): 1.27 | rAVERAGE (CTRL/1 INC) [4, 8]: 0.19 | Ki ([4]; immobilized VI16742): 108 µM | rAVERAGE (2 INC/1 INC) ([4]; second vs first incubation): 0.67 | rAVERAGE (CTRL/1 INC) [5, 8]: 0.05 | Ki ([5]; immobilized VI16742): 207 µM | rAVERAGE (2 INC/1 INC) ([5]; second vs first incubation): 0.80 | r (3 MG/1 MG LYSATE) ([6]; 3 mg vs 1 mg lysate): 1.04 | r (5 h/2.5 h INC. TIME) ([6]; 5 h vs 2.5 h incubation time): 1.40 | rAVERAGE (CTRL/1 INC) [6, 8]: 0.05 | Ki ([6]; immobilized VI16742): 223 µM | rAVERAGE (2 INC/1 INC) ([6]; second vs first incubation): 0.81 | rAVERAGE (CTRL/1 INC) [7, 8]: 0.06 | Ki ([7]; immobilized VI16742): 127 µM | rAVERAGE (2 INC/1 INC) ([7]; second vs first incubation): 0.71

From patent publication US8959984B2, “Proteome-wide quantification of small molecule binding to cellular target proteins” (priority 2007, dated 2015)
